# Reference: patent US8546608B2, “Proteasome inhibitors and methods of using the same” (Cephalon, Inc., priority 2003, dated 2013)
# What was measured:
# [1] = target: T1, 20S Human Erythrocyte Proteasome (HEP) (Homo sapiens, UniProt P20618+P28074); assay: Chymotrypsin-like activity of 20S Human Erythrocyte Proteasome (HEP), IC50 determination; format: biochemical; conditions: assay of Example C, inhibition of HEP
# T1 construct: 20S Human Erythrocyte Proteasome (HEP), purchased from Immatics Biotechnologies Inc; purchased Immatics Biotechnologies Inc., Tübingen, Germany; host or cells: human erythrocytes (natural source)
# Outline: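 20S proteasome at 0.2 μg/mL (about 0.6 nM catalytic sites) in 20 mM Tris with 0.04% SDS, preincubated 15 min at 37° C with inhibitor before Suc-LLVY-AMC (100 μM final). AMC fluorescence read in the linear range; triplicates, IC50 from concentration series.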
# [2] = target: T2, proteasome in Molt-4 cells (human leukemia) (Homo sapiens, UniProt P20618+P28074); format: cell-based; conditions: assay of Example E, inhibition of MOLT4; read-out: MOLT4 (EC50)
# T2 sequence (P28074 60-263): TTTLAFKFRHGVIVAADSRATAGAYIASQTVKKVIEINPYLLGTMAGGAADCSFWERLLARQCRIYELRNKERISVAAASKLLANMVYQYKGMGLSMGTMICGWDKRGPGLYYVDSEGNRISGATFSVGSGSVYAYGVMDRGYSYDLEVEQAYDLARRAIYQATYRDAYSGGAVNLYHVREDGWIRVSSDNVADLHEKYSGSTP
# T2 sequence (P20618 29-241): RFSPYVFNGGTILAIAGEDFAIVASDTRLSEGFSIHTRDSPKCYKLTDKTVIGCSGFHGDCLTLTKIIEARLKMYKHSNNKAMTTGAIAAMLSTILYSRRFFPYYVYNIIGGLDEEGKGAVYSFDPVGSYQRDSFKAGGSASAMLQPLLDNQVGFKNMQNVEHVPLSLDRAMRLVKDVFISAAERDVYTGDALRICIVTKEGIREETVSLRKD
# Outline: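 Intact Molt-4 cells (6×10^6 cells/mL) in HEPES-buffered saline were preincubated with inhibitor 15 min at 37 °C, then given cell-permeable MeOSuc-FLF-AFC at 25 μM final.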
SMILES,IC50 [1] [µM],EC50 [2] [µM]
"CC(C)C[C@H](NC(=O)[C@H](CCCNC(=N)N[N+](=O)[O-])NC(=O)CCCCCCCCCCCN1C(=O)c2ccccc2C1=O)B1O[C@@H]2C[C@@H]3C[C@@H](C3(C)C)[C@]2(C)O1 [D.3.189, 12-(1,3-Dioxo-1,3-dihydro-isoindol-2-yl)-dodecanamide, N-[(1S)-1-[[[(1R)-1-[(3aS,4S,6S,7aR)-hexahydro-3a,5,5-trimethyl-4,6-methano-1,3,2-benzodioxaborol-2-yl]-3-methylbutyl]amino]carbonyl]-4-[[imino(nitroamino)methyl]amino]butyl]]",< 0.01,< 0.2
"CC(C)C[C@H](NC(=O)[C@H](CCCNC(=N)N[N+](=O)[O-])NC(=O)CCc1ccc(C(C)C)cc1)B1O[C@@H]2C[C@@H]3C[C@@H](C3(C)C)[C@]2(C)O1 [D.3.190, 3-[4-(2-Propyl)phenyl]propanamide, N-[(1S)-1-[[[(1R)-1-[(3aS,4S,6S,7aR)-hexahydro-3a,5,5-trimethyl-4,6-methano-1,3,2-benzodioxaborol-2-yl]-3-methylbutyl]amino]carbonyl]-4-[[imino(nitroamino)methyl]amino]butyl]]",< 0.01,< 0.2
"CCc1ccc(CCC(=O)N[C@@H](CCCNC(=N)N[N+](=O)[O-])C(=O)N[C@@H](CC(C)C)B2O[C@@H]3C[C@@H]4C[C@@H](C4(C)C)[C@]3(C)O2)cc1 [D.3.191, 3-[4-(Ethyl)phenyl]propanamide, N-[(1S)-1-[[[(1R)-1-[(3aS,4S,6S,7aR)-hexahydro-3a,5,5-trimethyl-4,6-methano-1,3,2-benzodioxaborol-2-yl]-3-methylbutyl]amino]carbonyl]-4-[[imino(nitroamino)methyl]amino]butyl]]",< 0.01,< 0.2
"CC(C)C[C@H](NC(=O)[C@H](CCCNC(=N)N[N+](=O)[O-])NC(=O)CCCCCO)B1O[C@@H]2C[C@@H]3C[C@@H](C3(C)C)[C@]2(C)O1 [D.3.192, 6-hydroxyhexanamide, N-[(1S)-1-[[[(1R)-1-[(3aS,4S,6S,7aR)-hexahydro-3a,5,5-trimethyl-4,6-methano-1,3,2-benzodioxaborol-2-yl]-3-methylbutyl]amino]carbonyl]-4-[[imino(nitroamino)methyl]amino]butyl]]",< 0.1,2 to 10
"CCCCCCCCCCS(=O)(=O)N[C@@H](CCCNC(=N)N[N+](=O)[O-])C(=O)N[C@@H](CC(C)C)B1O[C@@H]2C[C@@H]3C[C@@H](C3(C)C)[C@]2(C)O1 [D.4.3, Decane-1-sulfonamide, N-[(1S)-1-[[[(1R)-1-[(3aS,4S,6S,7aR)-hexahydro-3a,5,5-trimethyl-4,6-methano-1,3,2-benzodioxaborol-2-yl]-3-methylbutyl]amino]carbonyl]-4-[[imino(nitroamino)methyl]amino]butyl]]",< 0.01,< 0.2
"CCCCCCCCS(=O)(=O)N[C@@H](CCCNC(=N)N[N+](=O)[O-])C(=O)N[C@@H](CC(C)C)B1O[C@@H]2C[C@@H]3C[C@@H](C3(C)C)[C@]2(C)O1 [D.4.4, Octanesulfonamide, N-[(1S)-1-[[[(1R)-1-[(3aS,4S,6S,7aR)-hexahydro-3a,5,5-trimethyl-4,6-methano-1,3,2-benzodioxaborol-2-yl]-3-methylbutyl]amino]carbonyl]-4-[[imino(nitroamino)methyl]amino]butyl]]",< 0.01,< 0.2
"CCCCOc1ccc(S(=O)(=O)N[C@@H](CCCNC(=N)N[N+](=O)[O-])C(=O)N[C@@H](CC(C)C)B2O[C@@H]3C[C@@H]4C[C@@H](C4(C)C)[C@]3(C)O2)cc1 [D.4.6, 4-Butoxyenzenesulfonamide, N-[(1S)-1-[[[(1R)-1-[(3aS,4S,6S,7aR)-hexahydro-3a,5,5-trimethyl-4,6-methano-1,3,2-benzodioxaborol-2-yl]-3-methylbutyl]amino]carbonyl]-4-[[imino(nitroamino)methyl]amino]butyl]]",< 0.1,< 0.2
"CCCCc1ccc(S(=O)(=O)N[C@@H](CCCNC(=N)N[N+](=O)[O-])C(=O)N[C@@H](CC(C)C)B2O[C@@H]3C[C@@H]4C[C@@H](C4(C)C)[C@]3(C)O2)cc1 [D.4.7, 4-Butyl-benzenesulfonamide, N-[(1S)-1-[[[(1R)-1-[(3aS,4S,6S,7aR)-hexahydro-3a,5,5-trimethyl-4,6-methano-1,3,2-benzodioxaborol-2-yl]-3-methylbutyl]amino]carbonyl]-4-[[imino(nitroamino)methyl]amino]butyl]]",< 0.1,< 0.2
"CCCCCc1ccc(S(=O)(=O)N[C@@H](CCCNC(=N)N[N+](=O)[O-])C(=O)N[C@@H](CC(C)C)B2O[C@@H]3C[C@@H]4C[C@@H](C4(C)C)[C@]3(C)O2)cc1 [D.4.8, 4-Pentyl-benzenesulfonamide, N-[(1S)-1-[[[(1R)-1-[(3aS,4S,6S,7aR)-hexahydro-3a,5,5-trimethyl-4,6-methano-1,3,2-benzodioxaborol-2-yl]-3-methylbutyl]amino]carbonyl]-4-[[imino(nitroamino)methyl]amino]butyl]]",< 0.1,< 0.2
"CC(C)C[C@H](NC(=O)[C@@H](NS(=O)(=O)c1ccc2ccccc2c1)[C@@H](C)O)B1O[C@@H]2C[C@@H]3C[C@@H](C3(C)C)[C@]2(C)O1 [D.4.9, Naphthalene-2-sulfonamide, N-[(1S,2R)-1-[[[(1R)-1-[(3aS,4S,6S,7aR)-hexahydro-3a,5,5-trimethyl-4,6-methano-1,3,2-benzodioxaborol-2-yl]-3-methylbutyl]amino]carbonyl]-2-hydroxypropyl]]",< 0.1,< 0.2
"CCCCCCCNC(=O)N[C@@H](CCCNC(=N)N[N+](=O)[O-])C(=O)N[C@@H](CC(C)C)B1O[C@@H]2C[C@@H]3C[C@@H](C3(C)C)[C@]2(C)O1 [D.6.3, N-[(1S)-1-[[[(1R)-1-[(3aS,4S,6S,7aR)-hexahydro-3a,5,5-trimethyl-4,6-methano-1,3,2-benzodioxaborol-2-yl]-3-methylbutyl]amino]carbonyl]-4-[[imino(nitroamino)methyl]amino]butyl]-N′-heptyl urea]",< 0.01,< 0.2
"CCCCCCCCCCCNC(=O)N[C@@H](CCCNC(=N)N[N+](=O)[O-])C(=O)N[C@@H](CC(C)C)B1O[C@@H]2C[C@@H]3C[C@@H](C3(C)C)[C@]2(C)O1 [D.6.5, N-[(1S)-1-[[[(1R)-1-[(3aS,4S,6S,7aR)-hexahydro-3a,5,5-trimethyl-4,6-methano-1,3,2-benzodioxaborol-2-yl]-3-methylbutyl]amino]carbonyl]-4-[[imino(nitroamino)methyl]amino]butyl]-N′-undecylurea]",< 0.01,< 0.2
"CCCCc1ccc(NC(=O)N[C@@H](CCCNC(=N)N[N+](=O)[O-])C(=O)N[C@@H](CC(C)C)B2O[C@@H]3C[C@@H]4C[C@@H](C4(C)C)[C@]3(C)O2)cc1 [D.6.8, N-[(1S)-1-[[[(1R)-1-[(3aS,4S,6S,7aR)-hexahydro-3a,5,5-trimethyl-4,6-methano-1,3,2-benzodioxaborol-2-yl]-3-methylbutyl]amino]carbonyl]-4-[[imino(nitroamino)methyl]amino]butyl]-N′-(4-butylphenyl) urea]",< 0.1,< 0.2
"CCCCCCCOc1ccc(NC(=O)N[C@@H](CCCNC(=N)N[N+](=O)[O-])C(=O)N[C@@H](CC(C)C)B2O[C@@H]3C[C@@H]4C[C@@H](C4(C)C)[C@]3(C)O2)cc1 [D.6.9, N-[(1S)-1-[[[(1R)-1-[(3aS,4S,6S,7aR)-hexahydro-3a,5,5-trimethyl-4,6-methano-1,3,2-benzodioxaborol-2-yl]-3-methylbutyl]amino]carbonyl]-4-[[imino(nitroamino)methyl]amino]butyl]-N′-(4-heptyloxylphenyl) urea]",< 0.01,< 0.2
"COc1ccccc1/C=C/C(=O)N[C@@H](CCCNC(=N)N[N+](=O)[O-])C(=O)N[C@@H](CC(C)C)B(O)O [D.7.1, Boronic acid, [(1R)-1-[[(2S)-5-[[imino(nitroamino)methyl]amino]-2-[[(2E)-3-(2-methoxyphenyl)-1-oxoprop-2-enyl]amino]-1-oxopentyl]amino]-3-methylbutyl]]",< 0.01,2 to 10
"C/C(=C\c1ccccc1)C(=O)N[C@@H](CCCNC(=N)N[N+](=O)[O-])C(=O)N[C@@H](CC(C)C)B(O)O [D.7.2, Boronic acid, [(1R)-1-[[(2S)-5-[[imino(nitroamino)methyl]amino]-2-[((E)-2-methyl-3-phenylacryl)amino]-1-oxopentyl]amino]-3-methylbutyl]]",< 0.01,2 to 10
"Cc1ccc(CCCC(=O)N[C@@H](CCCNC(=N)N[N+](=O)[O-])C(=O)N[C@@H](CC(C)C)B(O)O)cc1 [D.7.3, Boronic acid, [(1R)-1-[[(2S)-5-[[imino(nitroamino)methyl]amino]-2-[(4-(4-methylphenyl)butanoyl)amino]-1-oxopentyl]amino]-3-methylbutyl]]",< 0.01,2 to 10
